Series [1] can be described thus: in-vitro dermal (skin) irritection test. How it is done: (§1) The purified palm DHSA obtained in the laboratory was subjected to in-vitro and in-vivo dermal irritection test which confirmed that the compound is non irritant, and thus suitable as one of the ingredients used in cosmetic products. The details of the current invention is described below.
In the recrystallization technique, the crude DHSA is dissolved in the solvent with a slight heating of the mixture (about 50° C. to 60° C.). The solution is left to cool down gradually to ambient temperature and further cooled at about 10° C. to 15° C. to ensure maximum yield. The precipitate obtained is filtered and dried. The product referred to, as purified palm DHSA is a white powdery solid with waxy sensation. The non-irritancy properly was conducted through in vitro derived skin irritection study.

The conditions of series [2]: cited from earlier work.
The nature of series [3]: in-vivo dermal irritection test.
Excerpt: as §1

Entries after “also recorded” stand apart in the source; their conditions may differ.

Take `CCCCCCCCC(O)C(O)CCCCCCCC(=O)O` (stereo not drawn) [purified DHSA, 9,10-dihydroxystearic acid]: the irritancy entry in series [1] (test not named at this place) is “non-irritant”.
For the compound `CCCCCCCCC(O)C(O)CCCCCCCC(=O)O` (stereo not drawn) [9,10-dihydroxystearic acid], the solubility in ether entry in series [2] (ether) was “slightly soluble”. In addition, in series [2] (hot alcohol or acetone), the “solubility in hot alcohol or acetone” value was “soluble”. Further, in series [2] (water), the solubility in water result is on record as “insoluble”.
With `CCCCCCCCC(O)C(O)CCCCCCCC(=O)O` (stereo not drawn) [purified palm DHSA, 9,10-dihydroxystearic acid], the dermal irritancy result in series [1] (in vitro dermal/skin irritection study) is given as “non irritant; also recorded: non-irritant”; in series [3], “non irritant”.
